The text below walks through data of PMC11912748, “Image-Guided Monitoring of Mitochondria and Blood–Brain Barrier Dysfunction in Amyotrophic Lateral Sclerosis Mice” (Biomaterials Research, 2025).

One data set deals with SOD1^G93A mice. The data set is described as follows: Biodistribution and targeting in ALS mouse model by NIR imaging. It is filed as in vivo. The conditions noted are these: 25 nmol retro-orbital, 4 h post-injection. As to the method:
For biodistribution and targeting studies, 12-week-old B6SJLF1/J (SOD1^G93A)1Gur male mice (25 to 30 g) were purchased from the Charles River Laboratories (Wilmington, MA). Animals were housed in an AAALAC-certified facility [Massachusetts General Hospital (MGH) #D16-00361], and all animal studies were performed in accordance with the Public Health Service Policy on Humane Care of Laboratory Animals and approved by the MGH Institutional Animal Care and Use Committee (IACUC) (#N2016000136). […] Each mouse was set on the wire lid of a typical housing cage, which was then turned on its side. It was timed how long it took after the test started for the mouse to stand with at least 2 limbs on the lid. The longest latency was noted after the animals were given 3 chances to stand for a maximum of 3 min per trial. The hemizygous SOD1^G93A mice were selected via genotyping polymerase chain reaction (PCR) assay. Mice were fed chlorophyll-free mouse chow (VWR International. Radnor, PA) at least 5 d prior to imaging to minimize autofluorescence. […]
For all real-time intraoperative imaging, a standardized imaging protocol was employed throughout the procedure using our custom-made imaging system, as previously described. […] The signal-to-background ratio (SBR) was calculated as follows: SBR=IROI/IAuto (2) where IROI denotes the average intensity of an ROI and IAuto represents the intensity of the muscle.

Data set [1] in a line: Solubility in 5% BSA in saline. The conditions noted are these: 5% bovine serum albumin in saline, plasma or biological fluid, thermodynamic from solid. Format: physicochemical. As to the method:
MarvinSketch (ver. 23.11) and InstantJChem (ver. 23.17) calculator plug-ins (ChemAxon, Budapest, Hungary) were used to calculate in silico physicochemical property, such as molecular weight (MW), the partition and distribution coefficient (LogP and LogD at pH 7.4), surface molecular charge, hydrophobicity, the hydrogen bond acceptors/donors (HBA/HBD), the acid dissociation constant (pKa), the topological polar surface area (TPSA), and BBB score. The BBB score is determined by 5 key physicochemical descriptors, including the number of aromatic rings, the number of heavy atoms, MWHBN (a parameter derived from MW and the number of HBA/HBD), TPSA, and pKa. […] The absorbance and fluorescence emission spectra of ALS04 and ALS05 at varying concentrations were measured in dimethyl sulfoxide (DMSO) using HR2000 absorbance spectrometers (200 to 1,100 nm) and USB2000FL fluorescence spectrometers (350 to 1,000 nm) from Ocean Optics (Dunedin, FL). Fluorescence emission spectra were collected under NIR excitation using a 760-nm laser pointer (Opcom Inc., Xiamen, China). […] The fluorescence emission spectrum was integrated and plotted as a function of absorbance at 755 nm, and a linear fit was applied to determine the slope between fluorescence intensity and absorbance. […] Following this, the solution was centrifuged at 1,500g for 10 min, and the absorbance of the supernatant was measured. […]

Data set [2] is described as follows: Photostability under continuous 760-nm irradiation in 5% BSA. Format: physicochemical. The conditions noted are these: 5% BSA solution, NIR imaging conditions. As for the experimental part: To investigate the photostability of ALS04 and ALS05, 10 mM stock solutions were diluted to obtain working solutions, with concentrations of 100, 50, 20, and 10 μM in 5% BSA solution, which were then dispensed into a black 96-well plate. Subsequently, the 200-μl working solutions were exposed to continuous irradiation using a 760-nm laser diode at 4 mW/cm^2, with white light (400 to 650 nm) at 40,000 lux, and imaged for 240 min. The fluorescence (%) was calculated by analyzing the measured values with ImageJ v1.52 (National Institutes of Health, Bethesda, MD, USA) using images captured at each time point. The data, presented as mean ± SD, assessed stability by measuring regions of interest (ROIs) and comparing fluorescence intensity against the initial fluorescence signal.

Another data set has as its system CD-1 mice. The data set is described as follows: Biodistribution and clearance by NIR imaging. The conditions noted are these: 4 h post-injection. It is filed as in vivo. As for the experimental part:
Six-week-old CD-1 mice were used to quantify the blood clearance rate and urinary excretion. Mice were injected with 25 nmol of ALS04 or ALS05 in saline containing 2.5% PEG400 (polyethylene glycol, molecular weight 400) and 5% BSA via intravenous injection under isoflurane anesthesia, and blood was collected in heparinized capillary tubes (Fisher Scientific, Pittsburgh, PA) by tail nick before injection and at 1, 3, 5, 10, 30, 60, 120, 180, and 240 min post-injection and then stored in an icebox to prevent clotting. The supernatants of collected blood were filled into capillary microtubes (Fisher Scientific) after centrifugation. Mice were euthanized with CO2 inhalation to image organs and collect urine from the bladder 4 h post-injection. Collected urine samples were also placed into capillary microtubes. The fluorescence intensities of the microtubes were measured by NIR imaging along with a set of standard ALS04 or ALS05 samples of known concentrations to analyze the pharmacokinetics. Pharmacokinetic analysis was performed using the 2-compartment model (or biexponential decay) to estimate distribution (t1/2α) and elimination (t1/2β) blood half-life, the volume of distribution, and clearance. Results were presented as a biexponential decay curve.
For all real-time intraoperative imaging, a standardized imaging protocol was employed throughout the procedure using our custom-made imaging system, as previously described. Briefly, imaging utilized a 760-nm excitation source at a fluence rate of 4 mW/cm^2 combined with white light illumination (400 to 650 nm) at 40,000 lux. Camera exposure time was adjusted as needed to accurately capture the biodistribution of the fluorophores. Mice were maintained under general anesthesia using isoflurane or a combination of ketamine and xylazine (Webster Veterinary, Fort Devens, MA), and a midline incision was performed to expose the abdominal cavity. For imaging, a general field of view (FOV) of 5 cm in diameter was used to include the pancreas head, duodenum, liver, and kidneys, while a close-up FOV of 3.3 cm in diameter focused specifically on the pancreas head and duodenum. Following imaging, the mice were euthanized using CO₂ inhalation. Major organs, including the heart, lung, liver, pancreas, spleen, kidney, duodenum, intestine, and muscle, were excised and imaged ex vivo to evaluate fluorophore biodistribution and excretion pathways. The signal-to-background ratio (SBR) was calculated as follows: SBR=IROI/IAuto (2) where IROI denotes the average intensity of an ROI and IAuto represents the intensity of the muscle.

Usually solubility stands for how much of the substance goes into solution per volume. Lower therefore signals a poorly soluble substance. Consider `CN1/C(=C/C2=CC3=C/C(=C/c4sc5ccccc5[n+]4C)CCC3CC2)Sc2ccccc21` (centres unmarked) [ALS04], for which the “Uptake in BAT of SOD1^G93A mice compared to sham mice” value in the data set on SOD1^G93A mice (3-month-old asymptomatic mice, ****P ≤ 0.0001) is listed as “significantly reduced”. The “Signals in ventral temporal (VT) lobe and third ventricle (3v) of ALS mice compared to sham mice” value in the data set on SOD1^G93A mice (**P ≤ 0.01) is recorded as “significantly higher”. In addition, the concentration in solution in data set [1] (solubility at 5 min) was 2530 µg/mL. In addition, the “Photostability (retained fluorescence) at 10 μM” value in data set [2] (10 μM, 240 min) worked out at 60%. Further, the “Photostability (retained fluorescence)” value in data set [2] (up to 240 min) is “over 90%”. For the same compound, in the data set on CD-1 mice (25 nmol), the “SBR in duodenum or intestine and kidneys” value is listed as “relatively high SBR”; the “Signal in the bladder” value is on record as “Little signal”. In addition, the Clearance route entry in the data set on CD-1 mice (25 nmol, intravital NIR imaging) was “both renal and hepatic clearance”. Besides, the “Signals in brown adipose tissue (BAT) and pituitary gland (PG) compared to ALS05” value in the data set with CD-1 mice (25 nmol, ****P ≤ 0.0001 BAT, *P = 0.0324 PG) is listed as “highly selective accumulated signals”. Besides, in the data set with CD-1 mice (resected organs), the “Ex vivo signal in the gastrointestinal tract” value is “high signal” and the “Ex vivo signal in the kidney compared to ALS05” value was “noticeably higher signal”.
